Data taken from US20240139176A1, “METHODS OF TREATING OR PREVENTING CACHEXIA” (Toray Industries, Inc., priority 2019, published 2024).
Where a name gives a salt, the structure may show the parent alone.

How the values were obtained:
[1] = test system: tumor-bearing mouse model (non-small cell lung cancer model having ghrelin resistance), A549 cells planted into nude mice; test: Food intake and body weight in tumor-bearing mouse model (non-small cell lung cancer model having ghrelin resistance), dosing from Day 43 after A549 plantation; format: in vivo; conditions: oral daily for 28 days (Day 43 to Day 70), Compound 1 0.25 mg/kg, anamorelin hydrochloride 30 mg/kg, combined 0.25 + 30 mg/kg, Dunnett's test P<0.05; for cumulative food intake in the period of administration, compared to distilled water-treated group: FIG. 1; for body weight after 28-day administration, compared to distilled water-treated group: FIG. 2
Procedure: Using tumor-bearing model animals where human alveolar basement epidermal gland cancer cells, A549 cells, were planted into nude mice, examination was performed about drug efficacy on the food intake and the body weight when Compound 1 and anamorelin hydrochloride (MedChemExpress LLC) were combined.
(§1) Subculture of A549 cells was performed using a 10% FBS-containing RPMI1640 culture medium. In evaluation of drug efficacy, 7-week old female BALB/C slc/nu/nu mice (Japan SLC, Inc.) were purchased, and used after habituated for one week. Tumor-bearing model animals were prepared as follows. Specifically, 2.5×10^7 cells of A549 cells were planted to the right abdominal of each mouse by subdermal administration. On Day 41 from the cell plantation, the mice were divided into groups to have an equal averaged tumor volume.
The effects of a variety of compounds on food intake and body weight were examined as follows. Specifically, for 28 days from Day 43 to Day 70 from the cell plantation, the compounds were orally administered daily, and the food intake and the body weight were measured at the same time. For the doses of the compounds, the dose of Compound 1 was 0.25 mg/kg (9 examples), and that of anamorelin hydrochloride was 30 mg/kg (9 examples). In combined administration of Compound 1 and anamorelin hydrochloride, 0.25 mg/kg of Compound 1 and 30 mg/kg of anamorelin hydrochloride were used, where Compound 1 and anamorelin hydrochloride preliminarily dissolved in distilled water mixed for preparation (9 examples). As a control, distilled water was administered in the same manner (9 examples). The food intake was calculated by subtracting the weight of the lid of each single cage containing food on the previous day from the weight of the lid of the single cage containing food on the day of measurement.
In FIG. 1, the ordinate represents the cumulative food intake in the period of administration of the compounds (from the start of administration to the day next to the final day of administration). In FIG. 2, the ordinate represents the body weight on Day 29 from the start of administration of the compounds (the day next to the final day of administration) (after 28-day administration). In the abscissas of FIGS. 1 and 2, “Distilled water” represents distilled water-treated group, “Compound 1” represents Compound 1-treated group, “Anamorelin” represents anamorelin hydrochloride-treated group, and “Combined administration” represents Compound 1 and anamorelin hydrochloride-combined treatment group. In FIGS. 1 and 2, the mark “*” represents a statistical significance (*: P<0.05) compared to distilled water-treated group (Dunnett's multiple test).

[2] = test system: tumor-bearing mouse model (non-small cell lung cancer model), A549 cells planted to nude mice; test: Food intake and body weight in tumor-bearing mouse model (non-small cell lung cancer model), dosing from Day 23 after A549 plantation; format: in vivo; conditions: oral daily for 28 days (Day 23 to Day 50), Compound 1 0.25 mg/kg, anamorelin hydrochloride 30 mg/kg, combined 0.25 + 30 mg/kg, Dunnett's test P<0.05; for cumulative food intake in the period of administration, compared to distilled water-treated group: FIG. 3; for body weight after 28-day administration, compared to distilled water-treated group: FIG. 4
Procedure: Using tumor-bearing model animals where human alveolar basement epidermal gland cancer cells, A549 cells, were planted to nude mice, examination was performed about the drug efficacy on the food intake and body weight when Compound 1 and anamorelin hydrochloride were combined.
as §1, with “Cancer-bearing” for “Tumor-bearing”, “22” for “41”
The effects of a variety of compounds on food intake and body weight were examined as follows. Specifically, for 28 days from Day 23 to Day 50 from the cell plantation, the compounds were orally administered daily, and the food intake and the body weight measured at the same time. For the doses of the compounds, the dose of Compound 1 was 0.25 mg/kg (13 examples), and the dose of anamorelin hydrochloride was 30 mg/kg (13 examples). In combined administration of Compound 1 and anamorelin hydrochloride, 0.25 mg/kg of Compound 1 and 30 mg/kg of anamorelin hydrochloride were used, where Compound 1 and anamorelin hydrochloride preliminarily dissolved in distilled water were mixed for preparation (13 examples). As a control, distilled water was administered in the same manner (13 examples). The food intake was calculated by subtracting the weight of the lid of each single cage containing food on the previous day from the weight of the lid of the single cage containing food on the day of measurement.
In FIG. 3, the ordinate represents the cumulative food intake in the period of administration of the compounds (from the start of administration to the day next to the final day of administration). In FIG. 4, the ordinate represents the body weight on Day 29 from the start of administration of the compounds (the day next to the final day of administration) (after 28-day administration). In the abscissas of FIGS. 3 and 4, “Distilled water” represents distilled water-treated group, “Compound 1” represents Compound 1-treated group, “Anamorelin” represents anamorelin hydrochloride-treated group, and “Combined administration” represents Compound 1 and anamorelin hydrochloride combined-treatment group. In FIGS. 3 and 4, the mark “*” represents a statistical significance (*: P<0.05) compared to distilled water-treated group (Dunnett's multiple test).

[3] = test system: tumor-bearing mouse model (skin cancer model), B16/F10 cells planted to mice; test: Food intake and body weight in tumor-bearing mouse model (skin cancer model), B16/F10 cells; format: in vivo; conditions: oral daily for 11 days (Day 5 to Day 15), Compound 1 0.05 mg/kg, anamorelin hydrochloride 30 mg/kg, combined 0.05 + 30 mg/kg; for cumulative food intake in the period of administration, compared to distilled water-treated group: Dunnett's test P<0.05, FIG. 5; for body weight after 11-day administration, compared to distilled water-treated group: FIG. 6
Procedure: Using tumor-bearing model animals where mouse malignant melanoma cells, B16/F10 cells, were planted to mice, and examination performed about the drug efficacy to the food intake and the body weight when Compound 1 and anamorelin hydrochloride were combined.
Subculture of B16/F10 cells was performed using a DMEM culture medium containing 10% FBS and penicillin-streptomycin. In evaluation of the drug efficacy, 6-weeks old female C57BL/6J mice (Charles River Laboratories, Japan, Inc.) when introduced were used after habituated for one week. The tumor-bearing model animals were prepared as follows. Specifically, 5×10^6 cells of B16/F10 cells were planted to the right abdominal of each mouse by subdermal administration. On Day 5 from the cell plantation, the mice were divided into groups to have an equal averaged tumor volume.
The effects of a variety of compounds on food intake and body weight were examined as follows. Specifically, for 11 days from Day 5 to Day 15 from the cell plantation, the compounds were orally administered daily, and the food intake and the body weight measured at the same time. For the doses of the compounds, the dose of Compound 1 was 0.05 mg/kg (8 examples), and that of anamorelin hydrochloride was 30 mg/kg (8 examples). In combined administration of Compound 1 and anamorelin hydrochloride, 0.05 mg/kg of Compound 1 and 30 mg/kg of anamorelin hydrochloride were used, where Compound 1 and anamorelin hydrochloride preliminarily dissolved in distilled water were mixed for preparation (8 examples). As a control, distilled water was administered in the same manner (8 examples). The food intake was calculated by subtracting the weight of the lid of each single cage containing food on the previous day from the weight of the lid of the single cage containing food on the day of measurement. Eight individuals of each group were divided into two cases, in each of which 4 individuals were raised. The food intake per one mouse was calculated by dividing the total food intake of the 2 cases by 8.
In FIG. 5, the ordinate represents the cumulative food intake in the period of administration of the compounds (from the start of administration to the day next to the final day of administration). In FIG. 6, the ordinate represents the body weight on Day 12 from the start of administration of the compounds (the day next to the final day of administration) (after 11-day administration). In the abscissas in FIGS. 5 and 6, “Distilled water” represents distilled water-treated group, “Compound 1” represents Compound 1-treated group, “Anamorelin” represents anamorelin hydrochloride-treated group, and “Combined administration” represents Compound 1 and anamorelin hydrochloride-combined treatment group. […]

[4] = third phase clinical trials; cited from earlier work

| SMILES | cumulative food intake in the period of administration, compared to distilled water-treated group [1] | body weight after 28-day administration, compared to distilled water-treated group [1] | cumulative food intake in the period of administration, compared to distilled water-treated group [2] | body weight after 28-day administration, compared to distilled water-treated group [2] | cumulative food intake in the period of administration, compared to distilled water-treated group [3] | body weight after 11-day administration, compared to distilled water-treated group [3] | lean body mass [4] |
| --- | --- | --- | --- | --- | --- | --- | --- |
| CN(C)N(C)C(=O)[C@@]1(Cc2ccccc2)CCCN(C(=O)[C@@H](Cc2c[nH]c3ccccc23)NC(=O)C(C)(C)N)C1 [anamorelin hydrochloride, 2-amino-N-[(1R)-2-[(3R)-3-benzyl-3-(N,N′,N′-trimethylhydrazinocarbonyl)piperidin-1-yl-]-1-(1H-indol-3-ylmethyl)-2-oxoethyl]-2-methylpropionamide] | any statistically significant increase of food intake was not observed | any statistically significant increase in body weight was not observed | a tendency of increasing food intake was observed | statistically significant increase of body weight was exhibited | any statistically significant increase food intake was not observed | a tendency of increasing body weight was not exhibited | significantly increases lean body mass |
| CN(C(=O)/C=C/c1ccoc1)[C@@H]1CC[C@@]2(O)[C@H]3Cc4ccc(O)c5c4[C@@]2(CCN3CC2CC2)[C@H]1O5 [Compound 1, (−)-17-(cyclopropylmethyl)-3,14β-dihydroxy-4,5α-epoxy-6β-[N-methyl-trans-3-(3-furyl)acrylamide]morphinanhydrochloride] | any statistically significant increase of food intake was not observed | any statistically significant increase in body weight was not observed | statistically significant increase of food intake was exhibited | statistically significant increase of body weight was exhibited | any statistically significant increase food intake was not observed | a tendency of increasing body weight was not exhibited | – |
